Assay results taken from patent publication US20060041013A1, “Alanosine formulations and methods of use” (priority 2004, published 2006).
Read-outs that look alike come from different tables or passages of the source.

Experiments:
[1] = format: physicochemical; conditions: for Amount degraded/day (%) / Predicted purity after 2 years: Arrhenius analysis
Experimental: An Arrhenius analysis was performed to predict the loss of potency and increase in degradation products over time for commonly used storage temperatures for many drugs. […] Sets of the different solutions were then placed at 40° C., 50° C., or 60° C., and samples were taken every ten days over a 60 day period. […] Specifically, these plots show a distinct difference in purity as a function of pH and temperature. […] In the pH 7.5 formulation, there was more of each of these four impurities as compared to the pH 8.5 formulation. The impurity at RRT 0.32 formed readily as a function of temperature and pH. The impurities at RRTs 0.43 and 0.46 also formed as a function of temperature and pH, but not as readily.
Indeed, the purity of the samples is similar at pH 8.5 and 9.0. […] The trends in the data shown in FIG. 5 allow an Arrhenius analysis to be performed to predict changes in purity over time at various temperatures, particularly 5° C. and 25° C. Linear regression was used to determine the positions of the lines shown in FIG. 5, which then allowed the slope of the lines (i.e., the reaction rates, per day) to be determined for each pH and a given temperature. Arrhenius plots were the generated for each of pHs 7.5, 8.5 and 9.0 from the reaction rate versus the inverse temperatures. These plots are shown in FIG. 7, which allow the equation of the lines for each of three liquid formulations to be calculated. From these equations, the purity of any given temperature for a particular formulation at a given time can be predicted.
The HPLC system (Waters Corp., model 2690 Gradient HLPC System) employed a 4.6 mm×250 mm column (MetaChem Inc.) containing 5 μm particles (Inertsil ODS-3) as the stationary phase. The system was equipped with a UV/VIS detector (Waters Corp., model 996) set to 226 nm to monitor products being eluted from the column. Data generated from the column was managed on a personal computer running Empower Software (Waters Corp.). After preparation, the column was washed with at least 100 mL of water/acetonitrile (90:10, v/v), and stored at ambient temperature in the same solution.
In each HPLC run, the mobile phase, flowing at 1.0 mL/min., comprised 7.0 g of anhydrous monobasic potassium phosphate (KH2PO4; JT Baker) dissolved in 1000 mL H2O (at least HPLC grade). The pH of the solution was adjusted to 2.5 using phosphoric acid (85%, Fisher Scientific). 2.4 g of 1-decane sulfonic acid, sodium salt (Avocado Research Chemicals) was then mixed into the solution. 50 mL of acetonitrile (HPLC Grade, Burdick & Jackson) was then mixed with 950 mL of this solution. This mixture was then degassed by filtering through Durapore membrane filters, 0.45 μm, Type HVLP, under vacuum. The column flow rate was set at 1.0 mL/min.
Diluent was prepared by dissolving 3.5 g KH2PO4 and 3.5 g (Na2HPO4, Mallincrodt) in 1000 mL of HPLC grade H2O. […] Once prepared, an alanosine standard solution was stored at ambient temperature and retained for no more than seven days.
In addition to an alanosine standard solution, a sensitivity standard was also prepared by diluting 1 mL of the alanosine standard solution 1:100 using diluent.
HPLC runs were performed after the column had equilibrated for at least three hours in the mobile phase at room temperature. Column suitability was assessed at the beginning and end of each series of experiment as follows. Initially, two 10 μL aliquots of diluent were injected onto the column in duplicate, and the chromatographs recorded and examined.

[2] = test system: A549 NSCLC xenografts; test: MTAP-negative A549 NSCLC xenografts in SCID mice; format: in vivo; conditions: 60 days monitoring, doses as administered
[3] = test system: NCI-H2452; test: Docetaxel, 5-FU, SDX-102 alone or combined, MTT/MTS cytotoxicity (Example 4); format: cell-based; conditions: Homo sapiens; NCI-H2452, Mesothelioma, single agent, MTT 72 hours
[4] = test system: A-594; test: Intracellular ATP levels (Cell-Titer Glow); format: cell-based; conditions: 72 h; A-594, NSCLC, MTAP Negative; 3 day treatment
Experimental: (§1) MTAP status was determined using immunoblot analyses and correlated with the ability of an MTA analog to rescue ATP levels in cell lines treated with SDX-102. ATP levels were measured using Cell-Titer Glow™ (Promega) after a 3 day treatment with titrated concentrations of either SDX-102 or pemetrexed.

[5] = test system: NCI-H2452; test: Intracellular ATP levels (Cell-Titer Glow); format: cell-based; conditions: Homo sapiens, 72 h; NCI-H2452, Mesothelioma, MTAP Negative; 3 day treatment; read-out: ATP IC50
Experimental: as §1

[6] = test system: BxPC3; test: Intracellular ATP levels (Cell-Titer Glow); format: cell-based; conditions: Homo sapiens, BXPC-3, 72 h; BxPC3, Pancreatic, MTAP Negative; 3 day treatment
Experimental: as §1

[7] = test system: A-427; test: Cell viability MTT assay (Example 3); format: cell-based; conditions: Homo sapiens, 72 h; A-427, NSCLC, MTAP Positive; 3 days
[8] = physchem; format: physicochemical
Experimental: The solution was stirred on a stir plate at room temperature and the pH was adjusted by adding 20 microliter (μL) aliquots of 1N NaOH. After the addition of each aliquot, the resulting pH was measured potentiometrically and the results were recorded. The results of the titration appear in FIG. 1. The solution was also visually inspected during the course of the titration experiment to observe full dissolution of the alanosine.

[9] = Temperature and pH effects on stability (5 days at 5° C. or 80° C.); format: physicochemical; conditions: for osmolality: about 20 mg/mL
Experimental: Stability studies were then performed at different pHs. […] The pH of the solution was then adjusted in increments of 0.5 using 1N NaOH. Stability measurements of two duplicate samples were taken at each increment, beginning at pH 6.5 up through pH 9.0, and one sample was taken at pH 12.2. One set of samples was stored at 5° C., the other at 80° C., for five days, after which they were analyzed for pH, physical appearance, osmolality, and impurities. […] Here, impurities were determined by reverse phase HPLC as described herein.

[10] = test system: PANC-1; test: Docetaxel, 5-FU, SDX-102 alone or combined, MTT/MTS cytotoxicity (Example 4); format: cell-based; conditions: Homo sapiens; PANC-1, Pancreatic, single agent, MTT 72 hours
[11] = test system: HS-766T; test: Cell viability MTT assay (Example 3); format: cell-based; conditions: Hs766T, 72 h, Pancreatic, MTAP Positive, 3 days

In the case of `NC(CN(O)N=O)C(=O)O` [L-alanosine, L(−)-2-amino-3-nitrosohydroxylaminopropionic acid], the “Amount degraded/day (%)” value ([1]; 20 mg/mL, pH 7.5, 5° C.) is reported as 0.000374%, the “Predicted purity after 2 years” value ([1]; 20 mg/mL, pH 7.5, 5° C.) is reported as 99.727% and the “Amount degraded/day (%)” value ([1]; 20 mg/mL, pH 7.5, 25° C.) is reported as 0.000601%. For the same molecule, the “Predicted purity after 2 years” value ([1]; 20 mg/mL, pH 7.5, 25° C.) was 99.561%, the “Predicted purity after 2 years” value ([1]; 20 mg/mL, pH 8.5, 5° C.) was 99.985% and the “Predicted purity after 2 years” value ([1]; 20 mg/mL, pH 8.5, 25° C.) was 99.930%. For the same molecule, the calculated purity ([1]; 20 mg/mL, pH 8.5-9.0, stored at 25° C., at least two years) was “more than 99.9%”, the “Predicted purity after 2 years” value ([1]; 20 mg/mL, pH 9.0, 5° C.) was 100.00% and the “Predicted purity after 2 years” value ([1]; 20 mg/mL, pH 9.0, 25° C.) was 100.00%. The “trend in purity over 60 days” value ([1]; solutions pH 7.5, 8.5, 9.0 stored at 40° C.) was “no trend in decreased purity”, the tumor growth inhibition [2] was “did not induce tumor growth inhibition” and the IC50 [3] was 1000 ± 500 nM. The IC50 [4] was 300 nM, the IC50 [5] was 400 nM and the IC50 [6] was 600 nM. For the same molecule, the IC50 [7] was 3300 nM, the solubility in water [8] was “poor solubility” and the “pH that must be exceeded for full dissolution” value ([8]; free base, approx. 20 mg/mL in water) was “exceeded 6.2”. For the same molecule, the pKa ([8]; pKa (first)) was about 5.5, the pKa ([8]; pKa (second)) was about 8.5 and the “impurities as a function of pH” value ([9]; 80° C. five days, pH 6.5-12.2, HPLC) was “inverse relationship between the amount of impurities and pH”. For the same molecule, the osmolality ([9]; pH 6.5, stored at 5° C. five days) was 225 mOsm, the osmolality ([9]; pH 6.5, stored at 80° C. five days) was 247 mOsm and the osmolality ([9]; pH 8.0, stored at 5° C. five days) was 272 mOsm. For the same molecule, the osmolality ([9]; pH 8.0, stored at 80° C. five days) was 273 mOsm, the IC50 [10] was 10000 ± 5000 nM and the IC50 [11] was over 20000 nM.
